IC50 data for one compound are collected here from ChEMBL document CHEMBL5728232, “Multi-functionalized polysaccharide compounds and use thereof for targeting the cation-independent mannose 6-phosphate receptor” (2021).

The assay concerns the target Cation-independent mannose-6-phosphate receptor (Homo sapiens, UniProt P11717). Nature of the assay: Binding of the M6P Analogs of the Invention with CI-M6PR: 96-Well plates (Maxisorp Nunc) are incubated overnight at 4° C. with 200 μl of PMP (pentamannose 6-phosphate) at the concentration of 200 μg·ml−1, in carbonate buffer (NaHCO3/Na2CO3 at 0.1M, pH 9.6). The following day, the solution containing the residual PMP is discarded and the wells are saturated, for 1 h at ambient temperature, with 360 μl of 1% gelatin (Type A from Porcine Skin) diluted in PBS (1.9 mM NaH2PO4, 8.1 mM Na2PO4 and 154 mM NaCl, pH 7.4). The wells are then rinsed five times with PBS to which 0.2% gelatin has been added. All the washes and also the dilutions are carried out in the solution of PBS to which 0.2% gelatin has been added. The M6P analogs to be tested at the various concentrations (from 10−2 to 10−7 M) are pre-incubated in the presence of pre-biotinylated CI-M6PR (M6PRb) ([…]) for 20 min, then 200 μl of the mixture are incubated in the wells for 2 h, at ambient temperature. After three washes, the wells are incubated for 1 h with a streptavidin-peroxidase solution (250 μl per well; 3.10−8 M). After three more washes, 200 μl of a solution of OPD (o-phenylenediamine, 1 mg·ml−1 in citrate buffer, pH 5.0, and 1 μl 30% H2O2.ml−1; Sigma Aldrich) are added. […].

Cation-independent mannose-6-phosphate receptor, sequence (P11717 whole entry): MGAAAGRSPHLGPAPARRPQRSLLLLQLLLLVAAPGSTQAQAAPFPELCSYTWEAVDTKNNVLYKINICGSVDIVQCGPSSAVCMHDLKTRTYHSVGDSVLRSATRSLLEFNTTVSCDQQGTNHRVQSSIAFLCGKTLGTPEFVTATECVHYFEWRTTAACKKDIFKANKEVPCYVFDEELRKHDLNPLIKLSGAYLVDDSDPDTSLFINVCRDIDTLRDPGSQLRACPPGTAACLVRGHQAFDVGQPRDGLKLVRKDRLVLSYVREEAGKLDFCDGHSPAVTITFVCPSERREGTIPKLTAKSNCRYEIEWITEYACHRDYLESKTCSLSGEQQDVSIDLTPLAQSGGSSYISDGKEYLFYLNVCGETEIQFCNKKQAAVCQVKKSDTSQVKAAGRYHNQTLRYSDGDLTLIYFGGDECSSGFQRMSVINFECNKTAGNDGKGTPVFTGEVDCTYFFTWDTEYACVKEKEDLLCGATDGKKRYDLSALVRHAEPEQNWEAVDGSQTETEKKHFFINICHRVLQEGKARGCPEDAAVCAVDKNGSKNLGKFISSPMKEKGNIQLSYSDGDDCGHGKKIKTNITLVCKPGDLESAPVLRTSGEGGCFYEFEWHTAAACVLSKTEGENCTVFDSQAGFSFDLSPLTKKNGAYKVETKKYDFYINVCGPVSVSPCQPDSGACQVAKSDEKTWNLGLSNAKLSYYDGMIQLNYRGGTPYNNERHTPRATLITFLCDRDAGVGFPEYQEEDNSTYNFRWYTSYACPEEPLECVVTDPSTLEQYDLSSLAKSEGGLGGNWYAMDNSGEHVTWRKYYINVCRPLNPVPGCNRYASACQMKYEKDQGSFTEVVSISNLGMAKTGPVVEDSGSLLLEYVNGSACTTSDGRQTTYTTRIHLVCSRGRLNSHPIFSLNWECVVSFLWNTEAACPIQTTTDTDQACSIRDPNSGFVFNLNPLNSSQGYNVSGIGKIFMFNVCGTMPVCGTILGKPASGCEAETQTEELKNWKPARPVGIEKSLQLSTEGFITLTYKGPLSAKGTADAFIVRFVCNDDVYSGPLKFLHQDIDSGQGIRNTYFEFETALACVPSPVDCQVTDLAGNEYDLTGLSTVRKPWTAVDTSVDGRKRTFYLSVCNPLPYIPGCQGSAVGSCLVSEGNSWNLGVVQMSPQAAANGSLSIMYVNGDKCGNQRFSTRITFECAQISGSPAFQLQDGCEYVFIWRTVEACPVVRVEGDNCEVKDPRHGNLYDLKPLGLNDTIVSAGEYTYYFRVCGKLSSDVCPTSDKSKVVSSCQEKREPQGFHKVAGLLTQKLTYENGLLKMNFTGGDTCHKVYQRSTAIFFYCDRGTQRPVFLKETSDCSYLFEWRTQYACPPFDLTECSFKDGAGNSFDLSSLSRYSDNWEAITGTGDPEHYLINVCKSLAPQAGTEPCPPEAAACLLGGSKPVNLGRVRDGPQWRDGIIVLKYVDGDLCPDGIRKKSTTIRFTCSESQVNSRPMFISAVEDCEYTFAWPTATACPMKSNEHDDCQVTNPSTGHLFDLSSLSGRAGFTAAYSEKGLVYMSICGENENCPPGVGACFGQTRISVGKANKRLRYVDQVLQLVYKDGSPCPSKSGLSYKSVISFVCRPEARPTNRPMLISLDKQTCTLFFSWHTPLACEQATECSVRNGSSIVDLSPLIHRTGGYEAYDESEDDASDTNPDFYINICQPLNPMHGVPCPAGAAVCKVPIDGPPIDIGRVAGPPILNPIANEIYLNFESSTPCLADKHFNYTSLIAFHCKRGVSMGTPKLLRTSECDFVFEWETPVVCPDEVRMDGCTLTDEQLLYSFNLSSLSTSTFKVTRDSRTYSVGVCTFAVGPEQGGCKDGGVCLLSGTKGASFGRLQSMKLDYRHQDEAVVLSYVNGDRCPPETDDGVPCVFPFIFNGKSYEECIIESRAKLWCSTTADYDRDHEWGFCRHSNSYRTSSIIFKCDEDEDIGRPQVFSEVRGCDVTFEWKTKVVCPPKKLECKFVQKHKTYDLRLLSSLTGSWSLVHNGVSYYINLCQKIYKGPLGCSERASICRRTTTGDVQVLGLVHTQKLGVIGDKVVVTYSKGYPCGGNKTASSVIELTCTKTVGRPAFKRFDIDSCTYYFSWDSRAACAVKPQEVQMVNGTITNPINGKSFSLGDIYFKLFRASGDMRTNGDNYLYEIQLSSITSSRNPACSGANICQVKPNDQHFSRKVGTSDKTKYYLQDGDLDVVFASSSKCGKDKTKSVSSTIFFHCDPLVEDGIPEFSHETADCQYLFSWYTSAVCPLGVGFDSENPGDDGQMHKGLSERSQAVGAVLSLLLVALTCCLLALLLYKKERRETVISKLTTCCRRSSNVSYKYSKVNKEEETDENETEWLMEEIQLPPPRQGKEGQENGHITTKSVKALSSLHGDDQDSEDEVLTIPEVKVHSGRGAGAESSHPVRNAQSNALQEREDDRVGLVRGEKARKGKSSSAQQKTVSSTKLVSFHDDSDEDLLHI

A word on the IC50: it is the midpoint of a concentration-inhibition curve. For `NCCO[C@H]1OC(CO)[C@@H](O)[C@H](O)C1O[C@H]1OC(CCP(=O)(O)O)[C@@H](O)[C@H](O)C1O` (stereo partly specified), the half-maximal inhibitory concentration (IC50) was 5 µM.
